The results in this text go back to patent US5278167A, “6-pyridyl substituted pyrimidine derivatives” (Brown University Research Foundation, priority 1992, dated 1994).

Entries after “also recorded” stand apart in the source; their conditions may differ. Read-outs that look alike come from different tables or passages of the source. Some results are limits rather than exact numbers.

In one series the test system is HIV-1. The experiment in a line: anti-HIV activity: protection of T4 lymphocytes from HIV-1 cytolysis (XTT). Format: cell-based. The following applies: HIV-1 in CEM cells. The procedure:
(§1) The procedure used to test the 6-pyridyl substituted pyrimidine derivatives activity against HIV is designed to detect agents acting at any stage of the virus reproductive cycle (see Weislow et al. (1989) J. Nat'l. Cancer Inst. 81:577-586, incorporated by reference herein). The assay basically involves the killing of T4 lymphocytes by HIV. Small amounts of HIV are added to cells, and a complete cycle of virus reproduction is necessary to obtain the required cell killing. Agents that interact virions, cells, or virus gene-products to interfere with viral activities will protect cells from cytolysis. All tests are compared with at least one positive (e.g., AZT-treated) control done at the same time under identical conditions.
(§2) 1. The candidate pyrimidine derivative is dissolved in dimethyl sulfoxide then diluted 1:100 in cell culture medium before preparing serial half-log10 dilutions. T4 lymphocytes (CEM cell line) are added and after a brief interval HIV-1 is added, resulting in a 1:200 final dilution of the compound. […]
(§3) 4. Individual wells are analyzed spectrophotomically to quantitate formazan production, and in addition are viewed microscopically for detection of viable cells and confirmation of protective activity. […]
(§4) The anti-HIV activity profile of 1-benzyloxymethyl-5-ethyl-6-(α-pyridylthio) uracil determined by this procedure has been graphically represented in FIG. 1.

A short description of series [1]: toxicity to T4 lymphocytes (CEM cell line), uninfected toxicity control (XTT). The class given is cell-based. The following applies: human, CEM cells, 6 days, read-out: toxic concentration (IC50). The protocol:
as §1, §2, §3, §4
On the technique in general: Tetrazolium assays rely on reduction of a dye to a coloured formazan, in cell work by metabolically active cells.

Series [2] deals with HCT-8.clone 10 (AZT resistant) cells. The experiment in a line: growth inhibition of HCT-8.clone 10 (AZT resistant) cells. Format: cell-based, human. The conditions noted are these: for inhibition at 10 µM / inhibition at 1 µM / inhibition at 100 µM: Homo sapiens, 72 hours, read-out: Percent Growth Inhibition; for inhibition at 1 µM: 5-FUra 1 micromolar; for inhibition at 100 µM: 5-FUra 100 micromolar. The protocol: (§5) In general, the experiments designed to assess the […] activity of 5-fluoropyrimidines in conjunction with the 6-pyridyl substituted pyrimidine are carried out as follows.
(§6) Screw cap plastic tissue culture tubes are seeded with identical numbers of cultured tumor cells (approximately 2×10^4 cells/tube) in 4.8 mL RPMI-1640 containing 10% Fetal Bovine Serum (FBS) and 2% HEPES (IM buffer solution). The cultures are incubated overnight, on their sides, at 37° C. in a nonhumidified […] incubator.
(§7) The following day, the number of cells in duplicate tubes is determined. The media is decanted, the cells rinsed with Hanks' Balanced Salt Solution (calcium, magnesium and bicarbonate free) and replaced with 4.0 mL of trypsin-EDTA solution. The tubes are incubated at 37° C. for 5 minutes, then shaken to loosen the cells from the tube walls. To each tube is then added 1.0 mL of FBS and medium (50:50) in order to stop the action of the trypsin. Clumps of cells are broken apart by forceful repipetting with a 10 mL glass pipette. The resulting single cell suspension is counted using trypan blue exclusion and the total number of cells per tube recorded as the starting cell number.
(§8) Cells suspended in RPMI/FBS are preincubated with or without BPTU for 30 minutes, followed by addition of a given dose of 5-FUra. Tables 1 and 2 present the cell growth inhibition after 72 hours incubation with varying concentrations of 5-FUra, in the presence or absence of preincubation with 10 micromolar BPTU.
(§9) Similarly, Table 2 reports the effects of 5-FUra used in conjunction with BPTU on ™HCT-8 cells.

The test system of the next series is HCT-8 cells. The experiment in a line: growth inhibition of HCT-8 cells. The class given is cell-based, human. The conditions noted are these: for inhibition at 10 µM / inhibition at 1 µM / inhibition at 3 µM: Homo sapiens, 72 hours; for inhibition at 1 µM: 5-FUra 1 micromolar; for inhibition at 3 µM: 5-FUra 3 micromolar. The protocol: as §5, §6, §7, §8, §9

Setting [3] is: with BPTU (10 micromolar) preincubated 30 minutes.
Where [4] appears, read: with BPTU (10 micromolar) preincubated 30 minutes, read-out: Percent Growth Inhibition.
Where [5] appears, read: without BPTU, read-out: Percent Growth Inhibition.

By inhibition is commonly meant the drop in the measured response relative to a control, in per cent. In the case of `CCc1c(Sc2ccccn2)n(COCc2ccccc2)c(=O)[nH]c1=O` [BPTU, 1-benzyloxymethyl-5-ethyl-6-(α-pyridylthio) uracil], in the series on HIV-1 (8640 min), the “therapeutic index (TI50)” value was above 1.1e+06 mM. Besides, the EC50 in the series with HIV-1 (Human immunodeficiency virus 1, CCRF-CEM, 144 h, 6 days, XTT, read-out: effective concentration (EC50)) turned out to be 0.9 nM. Also, in series [1], the CC50 at 144 h is above 980 nM. For the same compound, the inhibition at 10 µM stood at 0% in series [2] (5-FUra 0, with BPTU (10 micromolar) alone) and 0% in the series on HCT-8 cells (5-FUra 0, with BPTU (10 micromolar) alone, read-out: Percent Growth Inhibition). In addition, the “growth inhibitory activity alone” value is given as “not shown to be growth inhibitory” in series [2] (alone at 10 micromolar, HCT-8.clone 10) and “not shown to be growth inhibitory” in the series on HCT-8 cells (alone at 10 micromolar). The “inhibition of cell growth in combination with 5-FUra” value in series [2] (combination with 5-FUra vs 5-FUra alone, HCT-8.clone 10) is on record as “more effectively than 5FUra alone”; in the series on HCT-8 cells (combination with 5-FUra vs 5-FUra alone) it was “more effectively than 5-FUra alone; also recorded: more effectively than 5FUra alone”.
Take `O=c1[nH]cc(F)c(=O)[nH]1` [Example 5-FUra, 5-fluorouracil]: the inhibition at 1 µM in series [2] (setting [3]) turned out to be 23%; in series [2] (without BPTU) it was 0%; with HCT-8 cells (setting [4]) it was 33%; in the series with HCT-8 cells (setting [5]), 0%. Further, the inhibition at 10 µM in series [2] (5-FUra 10 micromolar, with BPTU (10 micromolar) preincubated 30 minutes, P<0.01) worked out at 74%; in series [2] (5-FUra 10 micromolar, without BPTU), 29%; with HCT-8 cells (5-FUra 10 micromolar, with BPTU (10 micromolar) preincubated 30 minutes, P<0.01, read-out: Percent Growth Inhibition) it was 80%; in the series with HCT-8 cells (5-FUra 10 micromolar, without BPTU, read-out: Percent Growth Inhibition), 33%. Besides, the inhibition at 100 µM in series [2] (setting [3]) was above 100%; in series [2] (without BPTU), 56%. Besides, the values for the inhibition at 3 µM with HCT-8 cells (setting [4]) and with HCT-8 cells (setting [5]) were 55% and 9%, respectively.
